# Test results taken from US9145391B2, “Bipyridylaminopyridines as Syk inhibitors” (Merck Sharp & Dohme Corp., priority 2011, dated 2015).
# Target: recombinant human GST-Syk (Homo sapiens (Human), UniProt P43405)
# Assay: Homogeneous Time-Resolved Fluorescence (HTRF) assay for the recombinant human Syk enzyme
# Type: biochemical
# Settings: recombinant human GST-Syk 5 pM, ATP 25 μM, read-out: rhSyk IC50
# Procedure: Syk inhibition may be determined using the following assay protocol: Homogeneous Time-Resolved Fluorescence (HTRF) Assay for the Recombinant Human Syk Enzyme: A recombinant GST-hSyk fusion protein was used to measure potency of compounds to inhibit human Syk activity. […] To initiate the reaction the biotinylated substrate peptide (250 nM final concentration) that contains the phosphorylation site for Syk was added with magnesium (5 mM final concentration) and ATP (25 μM final concentration). […] Final volume of the quenching solution was 10 μL.
row,SMILES,IC50 [nM]
1,"Cc1cc(Nc2cc(C(F)F)ccn2)nc(-c2ccc(C(C)(O)[C@H]3CC[C@H](C(=O)OC(C)OC(=O)C(C)C)CC3)nc2)c1 (single isomer, unassigned) [Example 21-4, 1-[(2-methylpropanoyl)oxy]ethyl trans-4-[(1R or 1S)-1-(6-{[4-(difluoromethyl)pyridin-2-yl]amino}-4-methyl-2,3′-bipyridin-6′-yl)-1-hydroxyethyl] cyclohexanecarboxylate]",23
2,"Cc1cc(Nc2cc(C(F)F)ccn2)nc(-c2ccc(C(C)(O)[C@H]3CC[C@H](C(=O)OC(C)OC(=O)C(C)C)CC3)nc2)c1 (single isomer, unassigned) [Example 21-5, 1-[(2-methylpropanoyl)oxy]ethyl trans-4-[(1R or 1S)-1-(6-{[4-(difluoromethyl)pyridin-2-yl]amino}-4-methyl-2,3′-bipyridin-6′-yl)-1-hydroxyethyl] cyclohexanecarboxylate]",33
3,"CC(=O)OCCOC(=O)[C@H]1CC[C@H](C(C)(O)c2ccc(-c3cc(C)cc(Nc4cc(C(F)F)ccn4)n3)cn2)CC1 (single isomer, unassigned) [Example 21-6, 2-(acetyloxy)ethyl trans-4-[(1R or 1S)-1-(6-{[4-(difluoromethyl)pyridin-2-yl]amino}-4-methyl-2,3′-bipyridin-6′-yl)-1-hydroxyethyl] cyclohexanecarboxylate]",15
4,"Cc1cc(Nc2cc(C(F)F)ccn2)nc(-c2ccc(C(C)(O)[C@H]3CC[C@H](CO)CC3)nc2)c1 (single isomer, unassigned) [Example 23, (1R or 1S)-1-(6-{[4-(difluoromethyl)pyridin-2-yl]amino}-4-methyl-2,3′-bipyridin-6′-yl)-1-[trans-4-(hydroxymethyl)cyclohexyl]ethanol]",1
5,Cc1cc(Nc2cc(C(F)(F)F)ccn2)nc(-c2ccc(F)nc2)c1 [Example 1-1],38
6,Cc1ccnc(Nc2cc(C)cc(-c3ccc(F)nc3)n2)c1 [Example 1-2],111
7,Cc1ccnc(Nc2cc(C)cc(-c3ccnc(F)c3)n2)c1 [Example 1-3],135
8,Cc1cc(Nc2cc(C(F)(F)F)ccn2)nc(-c2ccnc(F)c2)c1 [Example 1-4],87
9,Cc1cc(Nc2cc(C(F)(F)F)ccn2)nc(-c2ccc(C3(O)CCN(C(=O)OC(C)(C)C)CC3)nc2)c1 [Example 1-5],406
10,CCOC(=O)C1CCC(O)(c2ccc(-c3cc(C)cc(Nc4cc(C(F)(F)F)ccn4)n3)cn2)CC1 (stereo not drawn) [Example 1-10],45
11,CCOC(=O)C1CCC(O)(c2ccc(-c3cc(C)cc(Nc4cc(C(F)(F)F)ccn4)n3)cn2)CC1 (stereo not drawn) [Example 1-11],47
12,COC(=O)C1CCC(C(=O)c2ccc(-c3cc(C)cc(Nc4cc(C(F)(F)F)ccn4)n3)cn2)CC1 (stereo not drawn) [Example 1-12],643
13,Cc1cc(Nc2cc(C(F)F)ccn2)nc(-c2ccc(C3(O)CCC3)nc2)c1 [Example 1-13],5
14,Cc1cc(Nc2cc(C(F)F)ccn2)nc(-c2ccc(C(C)(C)O)nc2)c1 [Example 1-14],8
15,CCCCOC(=O)C1CCC(C(C)(O)c2ccc(-c3cc(C)cc(Nc4cc(C(F)(F)F)ccn4)n3)cn2)CC1 (stereo not drawn) [Example 1-15],19
16,CCC(O)(c1ccc(-c2cc(C)cc(Nc3cc(C(F)(F)F)ccn3)n2)cn1)C1CCC(C(=O)OC)CC1 (stereo not drawn) [Example 1-16],12
17,COC(=O)C1CCC(C(O)(c2ccc(-c3cc(C)cc(Nc4cc(C(F)(F)F)ccn4)n3)cn2)C2CC2)CC1 (stereo not drawn) [Example 1-17],16
18,Cc1cc(Nc2cc(C(F)(F)F)ccn2)nc(-c2ccc(C3(O)CCC(C(=O)O)CC3)nc2)c1 (stereo not drawn) [Example 1-18],1
19,Cc1cc(Nc2cc(C(F)(F)F)ccn2)nc(-c2ccc(C3(O)CCC(C(=O)O)CC3)nc2)c1 (stereo not drawn) [Example 1-19],3

row,SMILES,IC50 [nM]
1,Cc1cc(Nc2cc(C(F)(F)F)ccn2)nc(-c2ccc(C3(O)CCCc4cc(C(=O)O)ccc43)nc2)c1 (stereo not drawn) [Example 1-21],2
2,Cc1cc(Nc2cc(C(F)(F)F)ccn2)nc(-c2ccc(C3(O)CCCc4cc(C(=O)O)ccc43)nc2)c1 (stereo not drawn) [Example 1-22],1
3,Cc1cc(Nc2cc(C(F)(F)F)ccn2)nc(-c2ccc(C3(O)CCC(C(=O)O)C(C)(C)C3)nc2)c1 (stereo not drawn) [Example 1-23],29
4,Cc1cc(Nc2cc(C(F)(F)F)ccn2)nc(-c2ccc(C3(O)CCC(C(=O)O)C(C)(C)C3)nc2)c1 (stereo not drawn) [Example 1-24],8
5,Cc1cc(Nc2cc(C(F)(F)F)ccn2)nc(-c2ccc(C3(O)CCC(C(=O)O)C(C)(C)C3)nc2)c1 (stereo not drawn) [Example 1-25],1
6,Cc1cc(Nc2cc(C(F)(F)F)ccn2)nc(-c2ccc(C3(O)CCC(C(=O)O)C(C)(C)C3)nc2)c1 (stereo not drawn) [Example 1-26],1
7,CCC(O)(c1ccc(-c2cc(C)cc(Nc3cc(C(F)(F)F)ccn3)n2)cn1)C1CCC(C(=O)O)CC1 (stereo not drawn) [Example 1-30],< 0.5
8,Cc1cc(Nc2cc(C(F)(F)F)ccn2)nc(-c2ccc(C(O)(C3CCC(C(=O)O)CC3)C3CC3)nc2)c1 (stereo not drawn) [Example 1-31],< 0.5
9,Cc1cc(Nc2cc(C3CC3)ccn2)nc(-c2ccc(C(C)(O)C3CCC(C(=O)O)CC3)nc2)c1 (stereo not drawn) [Example 1-32],1
10,CC(O)(c1ccc(-c2cc(C3CC3)cc(Nc3cc(C(F)F)ccn3)n2)cn1)C1CCC(C(=O)O)CC1 (stereo not drawn) [Example 1-33],< 0.5
11,CC(C)(O)c1cc(Nc2cc(C(F)F)ccn2)nc(-c2ccc(C(C)(O)C3CCC(C(=O)O)CC3)nc2)c1 (stereo not drawn) [Example 1-34],1
12,Cc1cc(Nc2cc(C(F)F)ccn2)nc(-c2ccc(C(C)(O)C3CCC(C(=O)O)C(C)C3)nc2)c1 (stereo not drawn) [Example 1-35],< 0.5
13,"Nc1cc(Nc2cc(C(F)(F)F)ccn2)nc(-c2ccc(NC3CCNC3=O)nc2)c1 (stereo not drawn) [Example 2, 3-[(4-Amino-6-{[4-(trifluoromethyl)pyridin-2-yl]amino}-2,3′-bipyridin-6′-yl)amino]pyrrolidin-2-one]",4
14,Cc1cc(Nc2cc(C(F)(F)F)ccn2)nc(-c2ccc(N3CCCC(NC(=O)OC(C)(C)C)C3)nc2)c1 (stereo not drawn) [Example 2-2],271
15,Cc1cc(Nc2cc(C(F)(F)F)ccn2)nc(-c2ccc(N3CCC(NC(=O)OC(C)(C)C)C3)nc2)c1 (stereo not drawn) [Example 2-3],248
16,Cc1cc(Nc2cc(C(F)(F)F)ccn2)nc(-c2ccc(NC3CCN(C(=O)OC(C)(C)C)CC3)nc2)c1 [Example 2-4],91
17,Cc1cc(Nc2cc(C(F)(F)F)ccn2)nc(-c2ccc(NC3CCNC3=O)nc2)c1 (stereo not drawn) [Example 2-9],4
18,Cc1cc(Nc2cc(C(F)(F)F)ccn2)nc(-c2ccc(N3CCCC3C(=O)O)nc2)c1 (stereo not drawn) [Example 2-10],3
19,Cc1cc(Nc2cc(C(F)(F)F)ccn2)nc(-c2ccc(N3CCC3C(=O)O)nc2)c1 (stereo not drawn) [Example 2-11],3

row,SMILES,IC50 [nM]
1,Cc1cc(Nc2cc(C(F)(F)F)ccn2)nc(-c2ccc(NC3CCNC3=O)nc2)c1 (stereo not drawn) [Example 2-16],6
2,Cc1cc(Nc2cc(C(F)(F)F)ccn2)nc(-c2ccc(N3CCCC3C(=O)O)nc2)c1 (stereo not drawn) [Example 2-17],39
3,Cc1cc(Nc2cc(C(F)(F)F)ccn2)nc(-c2ccc(N3CCC3C(=O)O)nc2)c1 (stereo not drawn) [Example 2-18],33
4,Cc1cc(Nc2cc(C(F)(F)F)ccn2)nc(-c2ccc(NC(C)(C)C(=O)O)nc2)c1 [Example 2-19],19
5,Cc1cc(Nc2cc(C(F)(F)F)ccn2)nc(-c2ccc(N3CCN(C(=O)N4CCCC(C(=O)O)C4)CC3)nc2)c1 (stereo not drawn) [Example 2-20],2
6,Cc1cc(Nc2cc(C(F)(F)F)ccn2)nc(-c2ccc(N3CC(C4CCCC(C(=O)O)C4)C3)nc2)c1 (stereo not drawn) [Example 2-21],2
7,Cc1cc(Nc2cc(C(F)(F)F)ccn2)nc(-c2ccc(N3CC(C4CCC(C(=O)O)CC4)C3)nc2)c1 (stereo not drawn) [Example 2-22],3
8,Cc1cc(Nc2cc(C(F)(F)F)ccn2)nc(-c2ccc(NCC3CCC(C(=O)O)CC3)nc2)c1 (stereo not drawn) [Example 2-23],3
9,Cc1cc(Nc2cc(C(F)(F)F)ccn2)nc(-c2ccc(NC3CCC(C(=O)O)CC3)nc2)c1 (stereo not drawn) [Example 2-24],1
10,Cc1cc(Nc2cc(C(F)(F)F)ccn2)nc(-c2ccc(NC3CCC(C(=O)O)CC3)nc2)c1 (stereo not drawn) [Example 2-25],7
11,Cc1cc(Nc2cc(C(F)(F)F)ccn2)nc(-c2ccc(N3CCC(C(=O)N4CCC(C(=O)O)CC4)CC3)nc2)c1 [Example 2-26],3
12,Cc1cc(Nc2cc(C(F)(F)F)ccn2)nc(-c2ccc(N3CCCC(C(=O)N4CCCC(C(=O)O)C4)C3)nc2)c1 (stereo not drawn) [Example 2-27],2
13,Cc1cc(Nc2cc(C(F)(F)F)ccn2)nc(-c2ccc(N3CCCC(C(=O)N4CCCC(C(=O)O)C4)C3)nc2)c1 (stereo not drawn) [Example 2-28],3
14,Cc1cc(Nc2cc(C(F)(F)F)ccn2)nc(-c2ccc(N3CCC4CCC(C(=O)O)CC4C3)nc2)c1 (stereo not drawn) [Example 2-29],6
15,Cc1cc(Nc2cc(C(F)(F)F)ccn2)nc(-c2ccc(N3CCOCC3)nc2)c1 [Example 2-30],14
16,"Cc1cc(Nc2cc(C(F)(F)F)ccn2)nc(-c2ccc(OC[C@H]3CC[C@H](C(=O)O)CC3)nc2)c1 [Example 3, trans-4-{[(4-Methyl-6-{[4-(trifluoromethyl)pyridin-2-yl]amino}-2,3′-bipyridin-6′-yl)oxy]methyl}cyclohexanecarboxylic acid]",3
17,Cc1cc(Nc2cc(C(F)(F)F)ccn2)nc(-c2ccc(N3CCC(C4CCCCC4C(=O)O)CC3)nc2)c1 (stereo not drawn) [Example 3-1],3
18,"Cc1cc(Nc2cc(C(F)(F)F)ccn2)nc(-c2ccc(NC3CCN(C(=O)c4cnc5ccc(F)cc5c4)CC3)nc2)c1 [Example 4, (6-Fluoroquinolin-3-yl)(4-(4-methyl-6-(4-(trifluoromethyl)pyridin-2-ylamino)-2,3′-bipyridin-6′-ylamino)piperidin-1-yl)methanone]",8
19,Cc1cc(Nc2cc(C(F)(F)F)ccn2)nc(-c2ccc(NC3CCN(C(=O)Cc4ccc(-c5cn[nH]c5)cc4)CC3)nc2)c1 [Example 4-1],9
